The values that follow come from US6465506B2, “Instillation techniques for ophthalmic agents to enhance treatment effect” (Ophthalmic Research Associates, Inc., priority 2001, dated 2002).

A short description of the assay: Pupil diameter after instillation of pilocarpine 1% before vs after TBUT (digital imaging system). The format is in vivo. As to conditions: 30 μL; for mean decrease from the baseline in pupil diameter: at 30 minutes, 6 normal eyes. On the procedure:
The following study examines the efficacy of pilocarpine, 1% in constricting the pupil and tropicamide, 1% in dilating the pupil when instilled before and after TBUT. Baseline pupil diameters were determined in 12 normal eyes using a digital imaging system (and controlling illumination). Six (6) of the eyes were dosed with 30 μL of pilocarpine and 6 with 30 μL of tropicamide, all before TBUT. Pupil diameter was measured every minute for 30 minutes after instillation. One day later, the same procedures were repeated in the same eyes, except that the subjects were instructed to stare without blinking (≧6 seconds) before the ophthalmic agents were instilled.

On to `CC[C@@H]1C(=O)OC[C@@H]1Cc1cncn1C` [Pilocarpine, pilocarpine], for which the “mean decrease from the baseline in pupil diameter” value by setting is: (instillation after TBUT) 2.44 units; (instillation before TBUT) 1.12 units. Besides, the “greater pupil constriction with instillation after TBUT vs before TBUT” value (over the 30 minute period) amounted to 29.44%.
